According to patent US20250296971A1, “GASTRIC INHIBITORY PEPTIDE RECEPTOR LIGANDS” (priority 2021, published 2025):
*1 amine or outer side, *2 acyl side, *3 side chain or, on linkers, in order; H or OH if unused. Where a SMILES comes first, the peptide text is derived from it. Bridges are numbered along the chain shown (N, C = ends). [ ]: non-standard residue; d: D form. The star is where a group is joined. X5 = NC(=O)[C@H](CCCCNC(=O)CN1CCN(CC(=O)O)CCN(CC(=O)O)CCN(CC(=O)O)CC1)NC(=O)CCC(=O)NCCCOCCOCCOCCCN*; X3 = O=C(O)CN1CCN(CC(=O)O)CCN(CC(=O)NCCCOCCOCCOCCCN*)CCN(CC(=O)O)CC1; DOTA = O=C(O)CN1CCN(CC(=O)O)CCN(CC(=O)*)CCN(CC(=O)O)CC1; Trp(5-Cl) = N[C@@H](Cc1c[nH]c2ccc(Cl)cc12)C(=O)O; Phe(3,5-Cl2) = N[C@@H](Cc1cc(Cl)cc(Cl)c1)C(=O)O; Pyridine(2,6-diCH2) = c1cc(C[*:1])nc(C[*:2])c1; Trp(6-F) = N[C@@H](Cc1c[nH]c2cc(F)ccc12)C(=O)O; Phe(2,4-Cl2) = N[C@@H](Cc1ccc(Cl)cc1Cl)C(=O)O; Phe(2-Cl) = N[C@@H](Cc1ccccc1Cl)C(=O)O; mXylylene = c1cc(C[*:1])cc(C[*:2])c1; Bta = N[C@@H](Cc1csc2ccccc12)C(=O)O; X7 = c1cc(CSCCN[*:2])cc(C[*:1])c1; Hyp = O=C(O)[C@@H]1C[C@@H](O)CN1; Suc = O=C(CCC(=O)[*:2])[*:1]; Api = NC1(C(=O)O)CCNCC1; Thp = NC1(C(=O)O)CCOCC1; Aib = CC(C)(N)C(=O)O

Each compound was assayed against T1, GIPR (CHO-K1-hGIPR cells) (Homo sapiens, UniProt P48546) (assay: FACS binding assay). Settings: competition with 20 nM GIP-057, 4° C. for 1 hour, read-out: pIC50 Category (converted).
T1 construct: host or cells: CHO-K1
T1 sequence (P48546 22-466): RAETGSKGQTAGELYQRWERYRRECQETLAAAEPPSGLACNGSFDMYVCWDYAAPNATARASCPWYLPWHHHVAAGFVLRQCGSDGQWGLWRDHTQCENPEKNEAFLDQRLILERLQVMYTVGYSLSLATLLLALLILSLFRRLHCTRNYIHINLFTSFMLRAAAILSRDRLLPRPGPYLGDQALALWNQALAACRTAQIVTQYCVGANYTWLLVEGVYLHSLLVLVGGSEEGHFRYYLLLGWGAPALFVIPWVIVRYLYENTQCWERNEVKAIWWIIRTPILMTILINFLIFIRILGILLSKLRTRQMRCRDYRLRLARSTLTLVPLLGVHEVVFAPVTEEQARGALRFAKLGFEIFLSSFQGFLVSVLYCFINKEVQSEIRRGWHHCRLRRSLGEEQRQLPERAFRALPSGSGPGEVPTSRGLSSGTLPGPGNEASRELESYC
In short: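 Read-out: flow cytometric median fluorescence intensity, APC/Cy5 channel, plotted vs peptide conc.; 4PL fit → EC50/pEC50 or IC50/pIC50. Cells: CHO-K1-hGIPR, Accutase-detached, 500.000/mL in PBS + 1% FCS. Detection: APC-streptavidin 1 μg/mL, 30 min, on ice.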

**Q.** For `CC[C@H](C)[C@@H]1NC(=O)[C@H](CC(C)C)NC(=O)[C@@H](C)NC(=O)[C@@H](NC(=O)[C@@H](CC(C)C)NC(=O)[C@H](CCC(=O)O)NC(=O)[C@@H]2CCCN2C(=O)[C@H](Cc2c[nH]c3ccccc23)NC(=O)[C@H](Cc2c[nH]c3ccccc23)NC(=O)[C@H](CC(=O)O)NC(=O)CCC(=O)NCCCOCCOCCOCCCNC(=O)CN2CCN(CC(=O)O)CCN(CC(=O)O)CCN(CC(=O)O)CC2)CSCc2cccc(c2)CSC[C@@H](C(=O)O)NC1=O` [GIP-285, DOTA-Ttds-Asp-Trp-Trp-Pro-Glu-leu-[Cys(3MeBn)-ala-Leu-Ile-Cys]-OH] ({X3-Suc}-DWWPE[dL]C[dA]LIC-OH; linker 7-11 via mXylylene), which IC50 is on record?
**A.** > 1000 nM

**Q.** For `CC[C@H](C)[C@@H]1NC(=O)[C@H](CC(C)C)NC(=O)C2(CCOCC2)NC(=O)[C@@H](NC(=O)[C@@H](CC(C)C)NC(=O)[C@H](CCC(=O)O)NC(=O)[C@@H]2C[C@@H](O)CN2C(=O)[C@H](Cc2ccc(Cl)cc2Cl)NC(=O)[C@H](Cc2c[nH]c3ccccc23)NC(=O)[C@H](CC(=O)O)NC(C)=O)CSCc2cccc(n2)CSC[C@@H](C(N)=O)NC1=O` [GIP-351, Ac-Asp-Trp-Egm-Hyp-Glu-leu-[Cys(2Lut)-Thp-Leu-Ile-Cys]-NH2] (Ac-DW[Phe(2,4-Cl2)][Hyp]E[dL]C[Thp]LIC-NH2; linker 7-11 via Pyridine(2,6-diCH2)), which IC50 is on record?
**A.** > 1000 nM

**Q.** How did the IC50 turn out when `CC[C@H](C)[C@@H]1NC(=O)[C@H](CC(C)C)NC(=O)C(C)(C)NC(=O)[C@@H](NC(=O)[C@@H](CC(C)C)NC(=O)[C@H](CCC(=O)O)NC(=O)[C@@H]2CCCN2C(=O)[C@H](Cc2c[nH]c3ccccc23)NC(=O)[C@H](Cc2c[nH]c3cc(F)ccc23)NC(=O)[C@H](CC(=O)O)NC(=O)CCC(=O)NCCCOCCOCCOCCCNC(=O)CN2CCN(CC(=O)O)CCN(CC(=O)O)CCN(CC(=O)O)CC2)CSCc2cccc(c2)CSCCNC1=O` [GIP-283, DOTA-Ttds-Asp-6Fw-Trp-Pro-Glu-leu-[Cys(3MeBn)-Aib-Leu-Ile-AET]] ({X3-Suc}-D[Trp(6-F)]WPE[dL]C[Aib]LI; linker 7-C via X7) was run?
**A.** 100 to 794 nM

**Q.** Which IC50 does the source give for `CC[C@H](C)[C@@H]1NC(=O)[C@H](CC(C)C)NC(=O)C2(CCOCC2)NC(=O)[C@@H](NC(=O)[C@@H](CC(C)C)NC(=O)[C@H](CCC(=O)O)NC(=O)[C@@H]2C[C@@H](O)CN2C(=O)[C@H](Cc2c[nH]c3ccc(Cl)cc23)NC(=O)[C@H](Cc2cc(Cl)cc(Cl)c2)NC(=O)[C@H](CC(=O)O)NC(C)=O)CSCc2cccc(n2)CSC[C@@H](C(N)=O)NC1=O` [GIP-263, Ac-Asp-Egn-5Clw-Hyp-Glu-leu-[Cys(2Lut)-Thp-Leu-Ile-Cys]-NH2] (Ac-D[Phe(3,5-Cl2)][Trp(5-Cl)][Hyp]E[dL]C[Thp]LIC-NH2; linker 7-11 via Pyridine(2,6-diCH2)) here?
**A.** 10 to 79.4 nM

**Q.** Which IC50 does the source give for `CC[C@H](C)[C@@H]1NC(=O)[C@H](CC(C)C)NC(=O)C2(CCN(C(=O)CN3CCN(CC(=O)O)CCN(CC(=O)O)CCN(CC(=O)O)CC3)CC2)NC(=O)[C@@H](NC(=O)[C@@H](CC(C)C)NC(=O)[C@H](CCC(=O)O)NC(=O)[C@@H]2C[C@@H](O)CN2C(=O)[C@H](Cc2c[nH]c3ccc(Cl)cc23)NC(=O)[C@H](Cc2ccccc2Cl)NC(=O)[C@H](CC(=O)O)NC(C)=O)CSCc2cccc(n2)CSC[C@@H](C(N)=O)NC1=O` [GIP-392, Ac-Asp-Ocf-5Clw-Hyp-Glu-leu-[Cys(2Lut)-Apc(DOTA)-Leu-Ile-Cys]-NH2] (Ac-D[Phe(2-Cl)][Trp(5-Cl)][Hyp]E[dL]C[Api](DOTA)LIC-NH2; linker 7-11 via Pyridine(2,6-diCH2)) here?
**A.** 10 to 79.4 nM

**Q.** With `CC[C@H](C)[C@@H]1NC(=O)[C@H](CC(C)C)NC(=O)C(C)(C)NC(=O)[C@@H](NC(=O)[C@H](CC(C)C)NC(=O)[C@H](CCC(=O)O)NC(=O)[C@@H]2CCCN2C(=O)[C@H](Cc2c[nH]c3ccccc23)NC(=O)[C@H](Cc2csc3ccccc23)NC(=O)[C@H](CC(=O)O)NC(C)=O)CSCc2cccc(c2)CSC[C@@H](C(=O)NCCCOCCOCCOCCCNC(=O)CCC(=O)N[C@@H](CCCCNC(=O)CN2CCN(CC(=O)O)CCN(CC(=O)O)CCN(CC(=O)O)CC2)C(N)=O)NC1=O` [GIP-273, Ac-Asp-Bta-Trp-Pro-Glu-Leu-[Cys(3MeBn)-Aib-Leu-Ile-Cys]-Ttds-Lys(DOTA)-NH2] (Ac-D[Bta]WPELC[Aib]LIC-X5; linker 7-11 via mXylylene) as the compound, how does the IC50 read?
**A.** 100 to 794 nM
